Experimental data published in ChEMBL document CHEMBL1201862, “PubChem BioAssay data set” (2004).
The source made the active and inactive calls.

Assays:
NS3 = NS3 (Hepatitis C virus, UniProt A3EZJ3); test: PubChem AID 2173; design: species or system Hepacivirus hominis
[1] = cytotoxicity in HEK-293T cells, dose response, cytotoxicity control for TCR NF-kB inhibitor project, luminescence, T-cell screen hits (AID 489026); type: functional, cell-based;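 further: cells exposed to compound about 14 hours before the viability readout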
[2] = Luminescence-based counterscreen assay for KLF5 inhibitors: dose response cell-based high throughput screening assay to identify cytotoxic compounds using the IEC-6 intestinal epithelial cell line. [Related pubchem assays: 1700 (Primary screen.), 1834 (Confirmation screen.), 1858 (Summary AID.), 1905 (Counterscreen.)]; type: functional
[3] = target: Luciferin 4-monooxygenase (Photinus pyralis, UniProt P08659); test: firefly luciferase enzyme inhibitors, dose response, biochemical, luminescence (AID 1891)
[4] = Luminescence Cell-Based Dose Confirmation HTS to Identify Inhibitors of Platelet Dense Granule Release. [Related pubchem assays: 1663 (Primary HTS), 1678 (Summary of Project)]; type: functional
[5] = target: T1, Heat shock factor protein 1 (Mus musculus, UniProt P38532); test: inhibition of MG132-induced HSE-luciferase signal, confirmation, cell-based, NIH3T3, luminescence, dose retest (AID 2382); type: functional;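 further: NIH3T3 fibroblasts with HSF1-driven luciferase reporter stressed by proteasome inhibitor MG132; luminescence from HSF1-driven luciferase expression after 8 hours of MG132 stress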
T1 sequence (P38532 whole entry): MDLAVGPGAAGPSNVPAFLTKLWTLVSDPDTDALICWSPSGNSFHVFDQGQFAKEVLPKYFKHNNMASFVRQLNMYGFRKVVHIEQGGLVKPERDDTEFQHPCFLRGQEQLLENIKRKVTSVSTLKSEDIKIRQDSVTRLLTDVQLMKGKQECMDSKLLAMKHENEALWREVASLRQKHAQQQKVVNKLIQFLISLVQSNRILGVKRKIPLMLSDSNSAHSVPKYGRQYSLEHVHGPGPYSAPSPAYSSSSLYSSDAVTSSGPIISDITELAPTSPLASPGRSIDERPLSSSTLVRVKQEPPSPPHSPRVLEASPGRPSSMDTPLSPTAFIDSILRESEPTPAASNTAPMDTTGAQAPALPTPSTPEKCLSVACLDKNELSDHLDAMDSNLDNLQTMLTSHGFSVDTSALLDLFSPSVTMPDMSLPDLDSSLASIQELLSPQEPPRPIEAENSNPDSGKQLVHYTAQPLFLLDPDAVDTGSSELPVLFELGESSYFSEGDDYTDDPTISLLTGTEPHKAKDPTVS

Sequence of Luciferin 4-monooxygenase (P08659 whole entry): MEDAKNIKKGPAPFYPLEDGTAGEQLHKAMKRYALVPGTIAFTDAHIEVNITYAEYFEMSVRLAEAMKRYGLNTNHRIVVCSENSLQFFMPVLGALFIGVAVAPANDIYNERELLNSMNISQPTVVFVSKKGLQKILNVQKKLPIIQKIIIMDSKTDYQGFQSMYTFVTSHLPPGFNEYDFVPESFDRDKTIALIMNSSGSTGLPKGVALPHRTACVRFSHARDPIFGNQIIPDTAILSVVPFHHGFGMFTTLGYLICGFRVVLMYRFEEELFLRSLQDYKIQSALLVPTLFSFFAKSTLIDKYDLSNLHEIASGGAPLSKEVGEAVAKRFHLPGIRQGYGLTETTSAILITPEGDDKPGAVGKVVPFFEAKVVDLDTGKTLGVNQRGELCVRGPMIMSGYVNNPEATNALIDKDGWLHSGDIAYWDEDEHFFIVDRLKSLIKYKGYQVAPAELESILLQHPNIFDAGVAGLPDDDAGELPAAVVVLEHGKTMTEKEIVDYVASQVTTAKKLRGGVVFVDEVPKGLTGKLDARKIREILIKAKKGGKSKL
Sequence of NS3 (A3EZJ3 whole entry): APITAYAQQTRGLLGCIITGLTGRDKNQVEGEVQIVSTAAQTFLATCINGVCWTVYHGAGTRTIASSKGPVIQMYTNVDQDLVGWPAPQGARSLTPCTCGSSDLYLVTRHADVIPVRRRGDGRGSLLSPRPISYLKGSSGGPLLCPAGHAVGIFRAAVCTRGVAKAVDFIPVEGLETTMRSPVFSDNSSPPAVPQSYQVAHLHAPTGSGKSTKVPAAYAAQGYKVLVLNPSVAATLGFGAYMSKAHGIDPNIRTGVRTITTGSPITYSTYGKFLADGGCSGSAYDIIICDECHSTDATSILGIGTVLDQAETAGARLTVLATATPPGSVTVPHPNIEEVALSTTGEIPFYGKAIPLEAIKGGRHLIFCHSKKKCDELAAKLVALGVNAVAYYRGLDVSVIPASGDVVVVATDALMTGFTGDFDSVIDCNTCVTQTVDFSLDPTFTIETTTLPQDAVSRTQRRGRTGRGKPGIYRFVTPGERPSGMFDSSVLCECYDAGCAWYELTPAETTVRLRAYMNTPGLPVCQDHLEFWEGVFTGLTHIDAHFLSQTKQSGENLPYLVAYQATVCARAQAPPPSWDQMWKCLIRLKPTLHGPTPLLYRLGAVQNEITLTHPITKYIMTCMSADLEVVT

| IC50 (NS3) | Compound | IC50 [1] | IC50 [2] | EC50 [3] | EC50 [4] | EC50 [5] |
| --- | --- | --- | --- | --- | --- | --- |
| 32 µM (not active) | NS(=O)(=O)c1ccc2nc(NC(=O)c3ccc4ncsc4c3)sc2c1 | – | – | – | – | – |
| – | O=C(Nc1ccc(N2CCCCC2)cc1)c1ccccn1 | > 80 µM (inactive) | 13.3 µM (not active) | 1.06 µM (active) | 1.49 µM (active) | < 0.16 µM (active) |
